A word on the IC50: it is the midpoint of a concentration-inhibition curve.

Some results are limits rather than exact numbers.

The test system of the first experiment is NCIH929.1 cells. Description: Cell viability assay for Table 2 (CellTiter-Glo 2.0, ATP quantification, 96 hr). The note with it: 96 h. The class given is cell-based. The source says: Cell Viability Assay for Table 2
CellTiter-Glo® 2.0 Assay was purchased from Promega (Madison, Wis., USA). NCIH929.1 cell line was purchased from ATCC (Manassas, Va., USA). Cell culture flasks and 384-well microplates were acquired from VWR (Radnor, Pa., USA).
(In ATP-based viability assays light output follows the ATP content of the culture.)
Compound `N#Cc1ccc(N2CCN(Cc3ccc(Cc4ccc5c6c(cccc46)C(=O)N5C4CCC(=O)NC4=O)cc3F)CC2)c(F)c1` (stereo not shown) [Compound 214, 4-[4-[[4-[[1-(2,6-dioxo-3-piperidyl)-2-oxo-benzo[cd]indol-6-yl]methyl]-2-fluoro-phenyl]methyl]piperazin-1-yl]-3-fluoro-benzonitrile] had an IC50 of less than 1 nM.

The same experiment, now with this note: 96 h, NCIH929.1 cell viability, 96 hr, top concentration 1 μM, 14 points half log titration; read-out: IC50.
Consider `O=C1CCC(N2C(=O)c3cccc4c(Cc5ccc(CN6CCN(S(=O)(=O)c7ccc(F)cc7)CC6)cc5)ccc2c34)C(=O)N1` (stereo not shown) [Compound 202, 3-[6-[[4-[[4-(4-fluorophenyl)sulfonylpiperazin-1-yl]methyl]phenyl]methyl]-2-oxo-benzoindol-1-yl]piperidine-2,6-dione], for which the IC50 was less than 1 nM.

For the compound `CC1(CN2CCC(n3cc(Cc4ccc5c6c(cccc46)C(=O)N5C4CCC(=O)NC4=O)cn3)(C(F)(F)F)CC2)CCC1` (stereo not shown) [Compound 191, 3-[6-[[1-[1-[(1-methylcyclobutyl)methyl]-4-(trifluoromethyl)-4-piperidyl]pyrazol-4-yl]methyl]-2-oxo-benzo[cd]indol-1-yl]piperidine-2,6-dione], the IC50 was less than 1 nM.

Turning to `O=C1CCC(N2C(=O)c3cccc4c(Cc5ccc(C(=O)N6CCN(c7ccccc7F)CC6)cc5)ccc2c34)C(=O)N1` (stereo not shown) [Compound 134, 3-[6-[[4-[4-(2-fluorophenyl)piperazine-1-carbonyl]phenyl]methyl]-2-oxo-benzo[cd]indol-1-yl]piperidine-2,6-dione], the IC50 was less than 1 nM.

As for `C[C@@H]1CN(Cc2ccc(Cc3ccc4c5c(cccc35)C(=O)N4C3CCC(=O)NC3=O)cc2)C[C@H](C)O1` (stereo partly drawn) [Compound 231, 3-(6-(4-(((2R,6S)-2,6-dimethylmorpholino)methyl)benzyl)-2-oxobenzo[cd]indol-1(2H)-yl)piperidine-2,6-dione], the IC50 is less than 1 nM.

Turning to `O=C1CCC(N2C(=O)c3cccc4c(Cc5ccc(CN6CCS(=O)(=O)CC6)cc5)ccc2c34)C(=O)N1` (stereo not shown) [Compound 122, 3-(6-(4-((1,4-dioxidothiomorpholino)methyl)benzyl)-2-oxobenzo[cd]indol-1(2H)-yl)piperidine-2,6-dione], the IC50 was less than 1 nM.

`O=C1CCC(N2C(=O)c3cccc4c(Cc5cnn(C6CCN(C(=O)c7ccccc7)CC6)c5)ccc2c34)C(=O)N1` (stereo not shown) [Compound 47, 3-(6-((1-(1-benzoylpiperidin-4-yl)-1H-pyrazol-4-yl)methyl)-2-oxobenzo[cd]indol-1(2H)-yl)piperidine-2,6-dione]: the IC50 was less than 1 nM.

For `O=C1CCC(N2C(=O)c3cccc4c(Cc5ccc(CN6CCC(c7ccccc7)CC6)cc5)ccc2c34)C(=O)N1` (stereo not shown) [Compound 227, 3-(2-oxo-6-(4-((4-phenylpiperidin-1-yl)methyl)benzyl)benzo[cd]indol-1(2H)-yl)piperidine-2,6-dione], the IC50 was less than 1 nM.

Turning to `CC1(CN2CCC(n3cc(C4(c5ccc6c7c(cccc57)C(=O)N6C5CCC(=O)NC5=O)CC4)cn3)CC2)CCC1` (stereo not shown) [Compound 164, 3-[6-[1-[1-[1-[(1-methylcyclobutyl)methyl]-4-piperidyl]pyrazol-4-yl]cyclopropyl]-2-oxo-benzo[cd]indol-1-yl]piperidine-2,6-dione], the IC50 was less than 100 nM.

For the compound `CC1(CN2CCC(n3cc(Cc4ccc5c6c(cccc46)C(=O)N5C4CCC(=O)NC4=O)cn3)CC23CC3)CCC1` (single isomer, unassigned) [Compound 274, 3-[6-[[1-[4-[(1-methylcyclobutyl)methyl]-4-azaspiro[2.5]octan-7-yl]pyrazol-4-yl]methyl]-2-oxo-benzo[cd]indol-1-yl]piperidine-2,6-dione], the IC50 is less than 1 nM.

As to `O=C1CCC(N2C(=O)c3cccc4c(Cc5ccc(C6(N7CCN(c8ccccc8F)CC7)CC6)cc5)ccc2c34)C(=O)N1` (stereo not shown) [Compound 264, 3-[6-(4-{1-[4-(2-Fluoro-phenyl)-piperazin-1-yl]-cyclopropyl}-benzyl)-2-oxo-2H-benzo[cd]indol-1-yl]-piperidine-2,6-dione], the IC50 is less than 1 nM.

For the compound `N#Cc1ccc(N2CCN(Cc3cnn(Cc4ccc5c6c(cccc46)C(=O)N5C4CCC(=O)NC4=O)c3)CC2)c(F)c1` (stereo not shown) [Compound 128, 4-[4-[[1-[[1-(2,6-dioxo-3-piperidyl)-2-oxo-benzo[cd]indol-6-yl]methyl]pyrazol-4-yl]methyl]piperazin-1-yl]-3-fluoro-benzonitrile], the IC50 is less than 1 nM.

For the compound `COC(C)(C)CN1CCC(n2cc(Cc3ccc4c5c(cccc35)C(=O)N4C3CCC(=O)NC3=O)cn2)CC1` (stereo not shown) [Compound 58, 3-(6-((1-(1-(2-methoxy-2-methylpropyl)piperidin-4-yl)-1H-pyrazol-4-yl)methyl)-2-oxobenzo[cd]indol-1(2H)-yl)piperidine-2,6-dione], the IC50 was less than 1 nM.

Take `CC1(C(=O)N2CCC(Cc3ccc(Cc4ccc5c6c(cccc46)C(=O)N5C4CCC(=O)NC4=O)cc3)CC2)CCC1` (stereo not shown) [Compound 150, 3-(6-(4-((1-(1-methylcyclobutane-1-carbonyl)piperidin-4-yl)methyl)benzyl)-2-oxobenzo[cd]indol-1(2H)-yl)piperidine-2,6-dione]: the IC50 is less than 1 nM.

As for `O=C1CCC(N2C(=O)c3cccc4c(Oc5ccc(CN6CCOCC6)cc5)ccc2c34)C(=O)N1` (stereo not shown) [Compound 273, 3-(6-(4-(morpholinomethyl)phenoxy)-2-oxobenzo[cd]indol-1(2H)-yl)piperidine-2,6-dione], the IC50 was less than 100 nM.

For the compound `O=C1CCC(N2C(=O)c3cccc4c(Cc5ccc(CN6CCC7(CCCCO7)CC6)cc5)ccc2c34)C(=O)N1` (stereo not shown) [Compound 228, 3-(6-(4-((1-oxa-9-azaspiro[5.5]undecan-9-yl)methyl)benzyl)-2-oxobenzo[cd]indol-1(2H)-yl)piperidine-2,6-dione], the 50% inhibitory concentration (IC50) was less than 1 nM.

Consider `CC1(CN2CCC(n3cc(Cc4ccc5c6c(cccc46)C(=O)N5C4CCC(=O)NC4=O)cn3)CC2)CC1` (single isomer, unassigned) [Compound 234, 3-[6-[[1-[1-[(1-methylcyclopropyl)methyl]-4-piperidyl]pyrazol-4-yl]methyl]-2-oxo-benzo[cd]indol-1-yl]piperidine-2,6-dione], for which the IC50 was less than 1 nM.

`O=C1CCC(N2C(=O)c3cccc4c(Cc5ccc(CN6CCOCC6)c(F)c5)ccc2c34)C(=O)N1` (stereo not shown) [Compound 278, 3-[6-{[3-fluoro-4-(morpholinomethyl)phenyl]methyl}-2-oxo-benzo[cd]indol-1-yl]piperidine-2,6-dione]: the IC50 was less than 1 nM.

With `CN1CC2CC(C(=O)N3CCC(n4cc(Cc5ccc6c7c(cccc57)C(=O)N6C5CCC(=O)NC5=O)cn4)CC3)(C2)C1` (stereo not shown) [Compound 265, 3-(6-((1-(1-(3-methyl-3-azabicyclo[3.1.1]heptane-1-carbonyl)piperidin-4-yl)-1H-pyrazol-4-yl)methyl)-2-oxobenzo[cd]indol-1(2H)-yl)piperidine-2,6-dione], the IC50 was less than 1 nM.

Take `C#CCOc1ccc2c3c(cccc13)C(=O)N2C1CCC(=O)NC1=O` (stereo not shown) [Compound 137, 3-(2-oxo-6-prop-2-ynoxy-benzo[cd]indol-1-yl)piperidine-2,6-dione]: the IC50 is less than 100 nM.

Consider `CC1(n2cc(Cc3ccc4c5c(cccc35)C(=O)N4C3CCC(=O)NC3=O)cn2)CCN(C(=O)C2(C(F)F)CC2)CC1` (stereo not shown) [Compound 76, 3-(6-((1-(1-(1-(difluoromethyl)cyclopropane-1-carbonyl)-4-methylpiperidin-4-yl)-1H-pyrazol-4-yl)methyl)-2-oxobenzo[cd]indol-1(2H)-yl)piperidine-2,6-dione], for which the IC50 is less than 1 nM.

On to `CC(=O)N1CCC(C)(n2cc(Cc3ccc4c5c(cccc35)C(=O)N4C3CCC(=O)NC3=O)cn2)CC1` (stereo not shown) [Compound 75, 3-(6-((1-(1-acetyl-4-methylpiperidin-4-yl)-1H-pyrazol-4-yl)methyl)-2-oxobenzo[cd]indol-1(2H)-yl)piperidine-2,6-dione], for which the IC50 is less than 1 nM.

Consider `O=C1CCC(N2C(=O)c3cccc4c(Cc5ccc(CN6CCOc7ccccc7C6)cc5)ccc2c34)C(=O)N1` (stereo not shown) [Compound 118, 3-(6-(4-((2,3-dihydrobenzo[f][1,4]oxazepin-4(5H)-yl)methyl)benzyl)-2-oxobenzo[cd]indol-1(2H)-yl)piperidine-2,6-dione], for which the IC50 is less than 1 nM.

Take `CC1(n2cc(Cc3ccc4c5c(cccc35)C(=O)N4C3CCC(=O)NC3=O)cn2)CCN(CC2(C(F)(F)F)CC2)CC1` (stereo not shown) [Compound 105, 3-(6-((1-(4-methyl-1-((1-(trifluoromethyl)cyclopropyl)methyl)piperidin-4-yl)-1H-pyrazol-4-yl)methyl)-2-oxobenzo[cd]indol-1(2H)-yl)piperidine-2,6-dione]: the IC50 is less than 1 nM.

In the case of `N#Cc1ccc(N2CCN(Cc3ccc(Cc4ccc5c6c(cccc46)C(=O)N5C4CCC(=O)NC4=O)cc3)CC2)c(F)c1` (racemic) [Compound 183, 4-[4-[[4-[[1-(2,6-dioxo-3-piperidyl)-2-oxo-benzo[cd]indol-6-yl]methyl]phenyl]methyl]piperazin-1-yl]-3-fluoro-benzonitrile], the IC50 is less than 1 nM.

Regarding `N#CC1(CN2CCC(n3cc(Cc4ccc5c6c(cccc46)C(=O)N5C4CCC(=O)NC4=O)cn3)CC2)CCC1` (stereo not shown) [Compound 60, 1-((4-(4-((1-(2,6-dioxopiperidin-3-yl)-2-oxo-1,2-dihydrobenzo[cd]indol-6-yl)methyl)-1H-pyrazol-1-yl)piperidin-1-yl)methyl)cyclobutane-1-carbonitrile], the IC50 is less than 1 nM.

As to `N#Cc1ccc(N2CCN(C(=O)c3ccc(Cc4ccc5c6c(cccc46)C(=O)N5C4CCC(=O)NC4=O)cc3)CC2)c(F)c1` (stereo not shown) [Compound 196, 4-[4-[4-[[1-(2,6-dioxo-3-piperidyl)-2-oxo-benzo[cd]indol-6-yl]methyl]benzoyl]piperazin-1-yl]-3-fluoro-benzonitrile], the IC50 was less than 1 nM.

Staying with this experiment, now noted: NCIH929.1 cell viability, 96 hr, top concentration 1 μM, 14 points half log titration; read-out: IC50.
Consider `CC(C)(C)OC(=O)N1CCC(n2cc(Cc3ccc4c5c(cccc35)C(=O)N4C3CCC(=O)NC3=O)cn2)CC1` (single isomer, unassigned) [Compound 142, tert-butyl 4-[4-[[1-[2,6-dioxo-3-piperidyl]-2-oxo-benzo[cd]indol-6-yl]methyl]pyrazol-1-yl]piperidine-1-carboxylate], for which the IC50 was less than 1 nM.
